Measurements published in ChEMBL document CHEMBL4507258 (2021).

What was measured:
[1] = biological target: Serine/threonine-protein kinase Nek11 (Homo sapiens) (UniProt Q8NG66); details: Compound concentration 1000.0 nM
[2] = biological target: Casein kinase I isoform gamma-3 (Homo sapiens) (UniProt Q9Y6M4); details: Compound concentration 1000.0 nM
[3] = system: Receptor-type tyrosine-protein kinase FLT3 (Homo sapiens), P36888 [UNDEFINED MUTATION]; details: Compound concentration 1000.0 nM
[4] = biological target: Serine/threonine-protein kinase WNK2 (Homo sapiens) (UniProt Q9Y3S1); details: Compound concentration 1000.0 nM
[5] = biological target: Tyrosine-protein kinase Blk (Homo sapiens) (UniProt P51451); details: Compound concentration 1000.0 nM
[6] = biological target: Serine/threonine-protein kinase DCLK3 (Homo sapiens) (UniProt Q9C098); details: Compound concentration 1000.0 nM
[7] = biological target: Serine/threonine-protein kinase Nek6 (Homo sapiens) (UniProt Q9HC98); details: Compound concentration 1000.0 nM
Sequence of Serine/threonine-protein kinase Nek6 (Homo sapiens) (Q9HC98 whole entry): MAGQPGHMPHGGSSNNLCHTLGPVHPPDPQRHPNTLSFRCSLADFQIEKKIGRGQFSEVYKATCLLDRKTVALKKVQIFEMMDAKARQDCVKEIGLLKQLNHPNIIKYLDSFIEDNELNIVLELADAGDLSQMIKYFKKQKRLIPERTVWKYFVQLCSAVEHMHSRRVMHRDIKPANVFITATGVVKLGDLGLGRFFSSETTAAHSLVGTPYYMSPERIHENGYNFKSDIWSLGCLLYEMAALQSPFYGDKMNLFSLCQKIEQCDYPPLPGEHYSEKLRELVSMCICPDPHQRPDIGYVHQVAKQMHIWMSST

[8] = biological target: Mast/stem cell growth factor receptor Kit (Homo sapiens) (UniProt P10721); details: Compound concentration 1000.0 nM
[9] = biological target: Serine/threonine-protein kinase N2 (Homo sapiens) (UniProt Q16513); details: Compound concentration 1000.0 nM
Sequence of Serine/threonine-protein kinase N2 (Homo sapiens) (Q16513 whole entry, looked up): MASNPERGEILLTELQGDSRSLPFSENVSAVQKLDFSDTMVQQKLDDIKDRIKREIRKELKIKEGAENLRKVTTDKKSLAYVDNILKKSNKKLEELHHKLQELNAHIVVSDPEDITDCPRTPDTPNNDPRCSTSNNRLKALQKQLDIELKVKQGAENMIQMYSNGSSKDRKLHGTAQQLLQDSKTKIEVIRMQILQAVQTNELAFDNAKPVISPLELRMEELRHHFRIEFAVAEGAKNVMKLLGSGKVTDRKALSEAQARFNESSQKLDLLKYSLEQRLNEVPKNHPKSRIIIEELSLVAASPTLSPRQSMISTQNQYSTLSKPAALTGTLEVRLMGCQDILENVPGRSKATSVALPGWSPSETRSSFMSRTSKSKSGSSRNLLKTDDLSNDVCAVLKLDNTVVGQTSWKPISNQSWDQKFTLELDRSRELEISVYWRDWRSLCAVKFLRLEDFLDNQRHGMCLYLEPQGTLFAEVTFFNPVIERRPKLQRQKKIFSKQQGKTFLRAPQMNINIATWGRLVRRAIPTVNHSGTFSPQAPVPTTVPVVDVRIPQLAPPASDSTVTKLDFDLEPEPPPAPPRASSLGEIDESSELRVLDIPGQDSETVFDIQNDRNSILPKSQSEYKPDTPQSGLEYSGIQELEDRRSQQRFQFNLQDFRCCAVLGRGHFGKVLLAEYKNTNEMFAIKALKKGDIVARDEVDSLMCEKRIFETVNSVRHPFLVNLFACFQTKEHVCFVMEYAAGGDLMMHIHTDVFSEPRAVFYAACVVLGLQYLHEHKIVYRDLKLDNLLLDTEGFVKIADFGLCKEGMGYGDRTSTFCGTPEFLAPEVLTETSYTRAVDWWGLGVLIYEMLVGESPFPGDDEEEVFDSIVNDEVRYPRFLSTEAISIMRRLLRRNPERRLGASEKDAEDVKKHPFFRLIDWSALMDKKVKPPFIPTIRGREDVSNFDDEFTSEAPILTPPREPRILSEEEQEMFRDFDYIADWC

[10] = biological target: Serine/threonine-protein kinase 35 (Homo sapiens) (UniProt Q8TDR2); details: Compound concentration 1000.0 nM
Sequence of Serine/threonine-protein kinase 35 (Homo sapiens) (Q8TDR2 whole entry): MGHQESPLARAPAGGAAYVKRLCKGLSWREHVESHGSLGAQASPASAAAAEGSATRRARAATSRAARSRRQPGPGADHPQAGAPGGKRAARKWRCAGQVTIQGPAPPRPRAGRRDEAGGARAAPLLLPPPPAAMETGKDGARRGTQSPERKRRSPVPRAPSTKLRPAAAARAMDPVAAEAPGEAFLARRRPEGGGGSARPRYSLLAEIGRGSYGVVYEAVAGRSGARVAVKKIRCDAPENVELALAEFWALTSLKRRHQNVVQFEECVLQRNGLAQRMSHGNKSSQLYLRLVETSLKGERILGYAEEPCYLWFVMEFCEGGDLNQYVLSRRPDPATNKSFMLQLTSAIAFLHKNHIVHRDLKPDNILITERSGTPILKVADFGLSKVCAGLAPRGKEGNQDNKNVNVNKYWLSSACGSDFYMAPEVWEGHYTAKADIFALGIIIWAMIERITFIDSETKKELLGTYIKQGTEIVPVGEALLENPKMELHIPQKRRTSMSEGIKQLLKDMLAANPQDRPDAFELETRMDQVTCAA

[11] = biological target: Serine/threonine-protein kinase NIM1 (Homo sapiens) (UniProt Q8IY84); details: Compound concentration 1000.0 nM
[12] = biological target: Alpha-1A adrenergic receptor (Homo sapiens) (UniProt P35348); details: Compound concentration 10.0 uM
[13] = biological target: Histamine H4 receptor (Homo sapiens) (UniProt Q9H3N8); details: Compound concentration 10.0 uM
[14] = biological target: Tyrosine-protein kinase receptor Tie-1 (Homo sapiens) (UniProt P35590); details: Compound concentration 1000.0 nM
[15] = biological target: LIM domain kinase 1 (Homo sapiens) (UniProt P53667); details: Compound concentration 1000.0 nM
[16] = biological target: Mitogen-activated protein kinase kinase kinase 10 (Homo sapiens) (UniProt Q02779); details: Compound concentration 1000.0 nM
[17] = biological target: Beta-3 adrenergic receptor (Homo sapiens) (UniProt P13945); details: Compound concentration 10.0 uM
[18] = biological target: Myosin light chain kinase (Homo sapiens) (UniProt Q32MK0); details: Compound concentration 1000.0 nM
Sequence of Myosin light chain kinase (Homo sapiens) (Q32MK0 whole entry): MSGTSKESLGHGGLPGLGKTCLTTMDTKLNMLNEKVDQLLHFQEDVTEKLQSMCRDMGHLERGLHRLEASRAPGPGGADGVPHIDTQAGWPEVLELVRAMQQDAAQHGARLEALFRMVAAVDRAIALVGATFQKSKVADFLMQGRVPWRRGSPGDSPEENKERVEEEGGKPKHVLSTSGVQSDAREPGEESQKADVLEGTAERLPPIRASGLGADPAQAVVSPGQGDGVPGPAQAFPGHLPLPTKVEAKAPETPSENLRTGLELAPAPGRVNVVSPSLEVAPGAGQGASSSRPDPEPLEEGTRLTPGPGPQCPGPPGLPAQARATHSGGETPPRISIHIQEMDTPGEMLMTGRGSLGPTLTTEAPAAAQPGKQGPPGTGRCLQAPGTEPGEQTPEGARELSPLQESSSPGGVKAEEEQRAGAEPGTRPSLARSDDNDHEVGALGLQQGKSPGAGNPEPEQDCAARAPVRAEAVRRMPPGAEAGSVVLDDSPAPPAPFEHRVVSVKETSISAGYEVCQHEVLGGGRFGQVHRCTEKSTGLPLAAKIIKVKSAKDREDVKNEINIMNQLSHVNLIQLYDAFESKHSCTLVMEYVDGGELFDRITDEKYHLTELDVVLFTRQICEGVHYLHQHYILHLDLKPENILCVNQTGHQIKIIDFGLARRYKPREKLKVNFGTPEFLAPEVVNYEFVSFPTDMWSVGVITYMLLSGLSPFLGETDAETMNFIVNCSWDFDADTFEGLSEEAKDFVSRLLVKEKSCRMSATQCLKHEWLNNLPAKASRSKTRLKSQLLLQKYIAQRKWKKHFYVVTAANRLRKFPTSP

[19] = biological target: Serine/threonine-protein kinase tousled-like 2 (Homo sapiens) (UniProt Q86UE8); details: Compound concentration 1000.0 nM
[20] = biological target: Serine/threonine-protein kinase tousled-like 1 (Homo sapiens) (UniProt Q9UKI8); details: Compound concentration 1000.0 nM
[21] = biological target: Serine/threonine-protein kinase PRP4 homolog (Homo sapiens) (UniProt Q13523); details: Compound concentration 1000.0 nM
[22] = biological target: Muscarinic acetylcholine receptor M3 (Homo sapiens) (UniProt P20309); details: Compound concentration 10.0 uM
[23] = biological target: Cyclin-dependent kinase 11B (Homo sapiens) (UniProt P21127); details: Compound concentration 1000.0 nM
[24] = biological target: Serine/threonine-protein kinase 10 (Homo sapiens) (UniProt O94804); details: Compound concentration 1000.0 nM
[25] = biological target: D(2) dopamine receptor (Homo sapiens) (UniProt P14416); details: Compound concentration 10.0 uM
[26] = biological target: Atypical kinase COQ8A, mitochondrial (Homo sapiens) (UniProt Q8NI60); details: Compound concentration 1000.0 nM
[27] = system: Tyrosine-protein kinase ABL1 (Homo sapiens), P00519 [H396P]; details: Compound concentration 1000.0 nM
[28] = biological target: Fibroblast growth factor receptor 4 (Homo sapiens) (UniProt P22455); details: Compound concentration 1000.0 nM
[29] = system: Epidermal growth factor receptor (Homo sapiens), P00533 [UNDEFINED MUTATION]; details: Compound concentration 1000.0 nM
[30] = biological target: Phosphatidylinositol 4,5-bisphosphate 3-kinase catalytic subunit gamma isoform (Homo sapiens) (UniProt P48736); details: Compound concentration 1000.0 nM
[31] = system: Mast/stem cell growth factor receptor Kit (Homo sapiens), P10721 [V559D,T670I]; details: Compound concentration 1000.0 nM
[32] = biological target: Mitogen-activated protein kinase 11 (Homo sapiens) (UniProt Q15759); details: Compound concentration 1000.0 nM
[33] = biological target: Non-receptor tyrosine-protein kinase TYK2 (Homo sapiens) (UniProt P29597); details: Compound concentration 1000.0 nM
Sequence of Non-receptor tyrosine-protein kinase TYK2 (Homo sapiens) (P29597 whole entry): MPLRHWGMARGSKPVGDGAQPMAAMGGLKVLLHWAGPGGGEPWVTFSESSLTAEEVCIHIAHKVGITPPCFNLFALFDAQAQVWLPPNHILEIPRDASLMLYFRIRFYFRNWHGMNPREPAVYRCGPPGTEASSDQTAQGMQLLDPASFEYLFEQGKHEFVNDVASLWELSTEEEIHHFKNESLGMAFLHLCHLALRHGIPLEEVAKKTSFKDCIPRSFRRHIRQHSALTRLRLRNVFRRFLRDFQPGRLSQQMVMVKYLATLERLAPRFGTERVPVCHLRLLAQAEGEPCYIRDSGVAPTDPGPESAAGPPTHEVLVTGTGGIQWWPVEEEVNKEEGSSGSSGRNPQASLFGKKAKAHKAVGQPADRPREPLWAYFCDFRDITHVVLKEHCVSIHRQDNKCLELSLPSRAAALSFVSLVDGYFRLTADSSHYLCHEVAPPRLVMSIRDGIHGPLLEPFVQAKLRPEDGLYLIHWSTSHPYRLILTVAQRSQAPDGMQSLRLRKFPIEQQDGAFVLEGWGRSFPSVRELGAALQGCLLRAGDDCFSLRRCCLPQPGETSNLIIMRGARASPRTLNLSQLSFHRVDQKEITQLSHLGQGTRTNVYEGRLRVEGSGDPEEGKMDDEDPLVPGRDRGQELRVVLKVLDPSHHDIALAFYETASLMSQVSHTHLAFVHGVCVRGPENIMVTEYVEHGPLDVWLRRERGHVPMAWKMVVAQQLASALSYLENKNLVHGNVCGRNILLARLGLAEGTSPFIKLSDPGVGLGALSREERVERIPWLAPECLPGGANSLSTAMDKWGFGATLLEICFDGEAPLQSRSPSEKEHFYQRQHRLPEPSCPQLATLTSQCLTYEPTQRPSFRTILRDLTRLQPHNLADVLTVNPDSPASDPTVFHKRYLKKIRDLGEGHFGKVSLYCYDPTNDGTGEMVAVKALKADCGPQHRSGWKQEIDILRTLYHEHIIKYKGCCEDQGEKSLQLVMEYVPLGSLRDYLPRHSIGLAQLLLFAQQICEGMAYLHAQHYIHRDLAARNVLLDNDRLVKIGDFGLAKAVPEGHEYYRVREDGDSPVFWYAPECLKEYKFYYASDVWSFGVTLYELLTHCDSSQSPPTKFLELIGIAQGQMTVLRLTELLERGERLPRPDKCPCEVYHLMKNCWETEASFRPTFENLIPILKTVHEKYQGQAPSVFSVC

[34] = biological target: Sodium-dependent dopamine transporter (Homo sapiens) (UniProt Q01959); details: Compound concentration 10.0 uM
[35] = biological target: Serine/threonine-protein kinase D3 (Homo sapiens) (UniProt O94806); details: Compound concentration 1000.0 nM
[36] = biological target: Protein kinase C theta type (Homo sapiens) (UniProt Q04759); details: Compound concentration 1000.0 nM
Sequence of Protein kinase C theta type (Homo sapiens) (Q04759 whole entry, looked up): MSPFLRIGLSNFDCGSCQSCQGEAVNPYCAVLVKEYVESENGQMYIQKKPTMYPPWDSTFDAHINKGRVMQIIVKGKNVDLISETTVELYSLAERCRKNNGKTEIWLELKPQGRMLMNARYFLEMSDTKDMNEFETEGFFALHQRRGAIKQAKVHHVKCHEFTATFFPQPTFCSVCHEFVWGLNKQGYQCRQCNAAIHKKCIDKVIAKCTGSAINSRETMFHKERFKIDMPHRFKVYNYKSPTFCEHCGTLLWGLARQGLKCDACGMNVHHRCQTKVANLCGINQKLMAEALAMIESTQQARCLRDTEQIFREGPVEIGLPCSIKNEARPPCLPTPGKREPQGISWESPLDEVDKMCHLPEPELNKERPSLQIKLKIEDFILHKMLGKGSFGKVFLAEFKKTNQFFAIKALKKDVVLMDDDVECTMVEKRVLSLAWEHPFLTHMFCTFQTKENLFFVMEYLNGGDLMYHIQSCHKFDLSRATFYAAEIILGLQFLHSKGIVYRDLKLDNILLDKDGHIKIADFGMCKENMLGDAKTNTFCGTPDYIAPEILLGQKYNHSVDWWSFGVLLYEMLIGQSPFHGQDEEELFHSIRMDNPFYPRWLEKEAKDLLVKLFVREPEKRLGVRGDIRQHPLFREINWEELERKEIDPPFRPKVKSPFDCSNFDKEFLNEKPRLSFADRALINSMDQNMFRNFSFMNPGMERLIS

[37] = biological target: Ephrin type-A receptor 8 (Homo sapiens) (UniProt P29322); details: Compound concentration 1000.0 nM
[38] = biological target: Serine/threonine-protein kinase Nek7 (Homo sapiens) (UniProt Q8TDX7); details: Compound concentration 1000.0 nM
[39] = system: Phosphatidylinositol 4,5-bisphosphate 3-kinase catalytic subunit alpha isoform (Homo sapiens), P42336 [E545A]; details: Compound concentration 1000.0 nM
[40] = biological target: Mitogen-activated protein kinase kinase kinase 19 (Homo sapiens) (UniProt Q56UN5); details: Compound concentration 1000.0 nM
[41] = biological target: 5-hydroxytryptamine receptor 2B (Homo sapiens, UniProt P41595); details: Compound concentration 10.0 uM
[42] = biological target: TGF-beta receptor type-2 (Homo sapiens) (UniProt P37173); details: Compound concentration 1000.0 nM
[43] = biological target: Cyclin-dependent kinase 15 (Homo sapiens) (UniProt Q96Q40); details: Compound concentration 1000.0 nM
[44] = biological target: Serine/threonine-protein kinase Sgk1 (Homo sapiens) (UniProt O00141); details: Compound concentration 1000.0 nM
[45] = biological target: Dual specificity mitogen-activated protein kinase kinase 1 (Homo sapiens) (UniProt Q02750); details: Compound concentration 1000.0 nM
Sequence of Dual specificity mitogen-activated protein kinase kinase 1 (Homo sapiens) (Q02750 whole entry): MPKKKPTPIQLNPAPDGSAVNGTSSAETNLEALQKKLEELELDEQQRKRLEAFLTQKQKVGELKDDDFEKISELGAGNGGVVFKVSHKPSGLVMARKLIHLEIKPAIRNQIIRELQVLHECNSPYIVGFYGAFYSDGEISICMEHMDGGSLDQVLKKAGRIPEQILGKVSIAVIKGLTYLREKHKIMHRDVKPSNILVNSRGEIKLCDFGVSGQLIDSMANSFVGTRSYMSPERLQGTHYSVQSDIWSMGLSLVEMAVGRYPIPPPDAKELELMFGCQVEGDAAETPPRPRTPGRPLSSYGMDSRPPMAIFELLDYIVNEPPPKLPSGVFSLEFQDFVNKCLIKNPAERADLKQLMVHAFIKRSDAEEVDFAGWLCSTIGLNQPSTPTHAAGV

CCCCN(CCCC)C(=O)CN1C[C@@H](c2cc(OC)c3c(c2)OCO3)[C@H](C(=O)O)[C@H]1CC(C)(C)CCC [A-545]
residual activity [1]: 100%
residual activity [2]: 100%
residual activity [3]: 99.1%
residual activity [4]: 99.3%
residual activity [5]: 100%
residual activity [6]: 100%
residual activity [7]: 98.1%
residual activity [8]: 100%
residual activity [9]: 100%
residual activity [10]: 100%
residual activity [11]: 100%
inhibition [12]: 23.3%
inhibition [13]: 4.1%
residual activity [14]: 94.7%
residual activity [15]: 99%
residual activity [16]: 65.4%
inhibition [17]: 28.4%
residual activity [18]: 100%
residual activity [19]: 100%
residual activity [20]: 82.4%
residual activity [21]: 99.3%
inhibition [22]: 10.3%
residual activity [23]: 100%
residual activity [24]: 82.4%
inhibition [25]: 21.3%
residual activity [26]: 99.4%
residual activity [27]: 100%
residual activity [28]: 95.8%
residual activity [29]: 100%
residual activity [30]: 90.8%
residual activity [31]: 79%
residual activity [32]: 99.2%
residual activity [33]: 95.8%
inhibition [34]: 23%
residual activity [35]: 100%
residual activity [36]: 78.6%
residual activity [37]: 99.9%
residual activity [38]: 86.6%
residual activity [39]: 77.9%
residual activity [40]: 100%
inhibition [41]: 76%
residual activity [42]: 98.6%
residual activity [43]: 93.8%
residual activity [44]: 77.6%
residual activity [45]: 100%

CCCCN(CCCC)C(=O)CN1C[C@H](c2cc(OC)c3c(c2)OCO3)[C@@H](C(=O)O)[C@@H]1CC(C)(C)CCC [ABT-546]
residual activity [1]: 85.8%
residual activity [2]: 100%
residual activity [3]: 90.6%
residual activity [4]: 60.2%
residual activity [5]: 95.8%
residual activity [6]: 91.4%
residual activity [7]: 100%
residual activity [8]: 100%
residual activity [9]: 100%
residual activity [10]: 100%
residual activity [11]: 100%
inhibition [12]: -2.13%
inhibition [13]: -0.606%
residual activity [14]: 100%
residual activity [15]: 100%
residual activity [16]: 97%
inhibition [17]: 2.71%
residual activity [18]: 100%
residual activity [19]: 100%
residual activity [20]: 100%
residual activity [21]: 100%
inhibition [22]: -9.94%
residual activity [23]: 86.4%
residual activity [24]: 100%
inhibition [25]: 21.3%
residual activity [26]: 100%
residual activity [27]: 96.1%
residual activity [28]: 100%
residual activity [29]: 85%
residual activity [30]: 76.9%
residual activity [31]: 100%
residual activity [32]: 94.2%
residual activity [33]: 85.9%
inhibition [34]: -0.591%
residual activity [35]: 90.2%
residual activity [36]: 100%
residual activity [37]: 100%
residual activity [38]: 100%
residual activity [39]: 89.8%
residual activity [40]: 90.3%
inhibition [41]: -9.89%
residual activity [42]: 100%
residual activity [43]: 100%
residual activity [44]: 69.2%
residual activity [45]: 64.8%
